{
  "source": "patent US20240325553A1",
  "about": "“CYTOSTATIC CONJUGATES WITH INTEGRIN LIGANDS” (priority 2018, published 2024)",
  "key": {"[1]": {"assay": "Stability in citric acid buffer at pH 4", "format": "physicochemical", "conditions": "37° C., peak area", "protocol": "Method: 0.15 mg of the test compound were solved in 0.1 ml dimethylsulfoxide and 0.4 ml acetonitrile. For complete dissolution the HPLC vial with the sample solution was shaken and sonicated. Then 1.0 ml of the respective buffer solution (Citrate buffer pH 4; citric acid/sodium hydroxide/sodium chloride Fluka 33643) was added and the sample was vortexed. The sample solution was analysed by HPLC to determine the amount of the test compound and up to two byproducts at a particular time (0, 1, 2 4, 24 hrs) over a period of 24 h at 37° C. t(0) values resulted from a sample immediately taken after vortexing with buffer at RT. The peak areas (in percentage) were used for quantification.\nLC & LC/MS purity analysis: The starting material was analyzed for purity by LC; the 24 h sample was additionally analyzed by LC/MS (Waters Quattro Micro)."}, "786-O cell line": {"test_system": "786-O cell line", "assay": "Cytotoxicity in vitro (MTT) in the presence and absence of elastase, 786-O", "format": "cell-based", "protocol": "(§1) Cultivation of cells was performed according to standard procedures with the media recommended by the provider. The cells in a total volume of 100 μL were seeded in a 96-well plate with white bottom (#3610). After a 24 h incubation period at 37° C. and 5% CO2, the medium was changed by adding 90 μL fresh medium. The treatment starts by adding the test compound to the cells in 10 μl of culture medium. Concentrations from 10^−5 M to 10^−13 M in triplicates were chosen followed by an incubation at 37° C. and 5% carbon dioxide. One set of samples were only treated with the test compound whereas to an otherwise identically treated second set of samples also 10 nM elastase was pipetted. After 72 h. the proliferation is detected using the MTT assay (ATCC). At the end of the incubation period the MTT reagent is added to all samples for 4 h, followed by lysis of the cells overnight by addition of the detergent. The dye formed was detected at 570 nm. The proliferation of cells which were not treated with test substance but were otherwise identically treated was defined as the 100% value. (FIG. 1 and table 4)."}, "[2]": {"test_system": "SW-480 xenograft (colon cancer)", "assay": "In vivo xenotransplantation study, SW-480", "design": "species or system mice", "conditions": "SW-480, 36 mg/kg i.v., 3 days on, 4 days off, 3 cycles; mean tumor area", "protocol": "(§2) For this purpose, immunocompromised mice were implanted subcutaneously with tumor cells or tumor fragments. […] Intravenous treatments were performed on three consecutive days once daily followed by four days drug holiday without treatments. The tumor size and the body weight were determined at least weekly. The tumor area was detected by means of an electronic caliper [length (mm)×width (mm)]. The experimental groups were ended when the group reached the pre-determined ethical endpoint based on German and European animal welfare regulations. In vivo anti-tumor efficacy is presented as T/C ratio of mean tumor area measured for treatment and control group on the last day at which the vehicle control remained in study (Treatment/Control; mean tumor area of treatment group/mean tumor area of control group. A compound having a T/C below 0.5 is defined as active (i.e., effective). Statistical analysis was assessed using SigmaStat software. A one-way analysis of variance was performed and differences to the control were compared by a pair-wise comparison procedure (Dunn's method)."}, "[3]": {"assay": "Plasma stability in rat plasma", "format": "in vitro ADME", "conditions": "37° C.", "protocol": "For complete dissolution the HPLC vial was shaken and treated with ultrasound. 500 μl of this solution were added to 0.5 mL of rat plasma with vortexing at a temperature of 37° C. Aliquots (10 μL each) were taken at respective time points and analyzed by HPLC to determine the amount of the test compound. All data is given as percent area of the initial compound at t0."}, "[4]": {"test_system": "MX1 xenograft (breast cancer)", "assay": "In vivo xenotransplantation study, MX1", "design": "species or system mice", "conditions": "MX1, 36 mg/kg i.v., 3 days on, 4 days off, 3 cycles; mean tumor area", "protocol": "as §2"}, "HT29 cell line": {"test_system": "HT29 cell line", "assay": "Cytotoxicity in vitro (MTT) in the presence and absence of elastase, HT29", "format": "cell-based", "conditions": "72 h", "protocol": "as §1"}, "[5]": {"test_system": "NCI-H69 xenograft (lung cancer)", "assay": "In vivo xenotransplantation study, NCI-H69", "design": "species or system mice", "conditions": "NCI-H69, 40 mg/kg i.v., 3 days on, 4 days off, 3 cycles; mean tumor area", "protocol": "as §2"}, "Solubility in vehicles": {"assay": "Solubility in vehicles", "format": "physicochemical", "conditions": "room temperature (25° C.)", "protocol": "Method: For each vehicle to be tested. 0.5-1.0 mg test compound were weighed into a 2 ml Eppendorf vial. 2-3 Glas perls (Ø 3 mm) and 1.0 ml vehicle were added. The vial was shaken at 1400 rpm for 24 hrs at room temperature (25° C.). After this time period the supernatant (approx. 230 μl was transferred to a centrifuge tube. After 30 min at 42 000 rpm the solute was transferred to another vial and diluted with DMSO (1:5 and 1:50). These two dilutions were analyzed by HPLC (read out: area)\n• Eluent A: 1 ml Trifluoro acetic acid/L water • Eluent B: 1 ml Trifluoro acetic acid/L acetonitrile • Gradient:\n• Column: ZORBAX Extend-C18, 3.0×50 mm, 3, 5 μm • Oven temperature: 30° C. • Detection: 214 and 254 nm • Injection volume: 20 μl\nFor quantification a calibration curve was obtained from DMSO solution of the test compound ([…], 20 μg/ml and 2.5 μg/ml) by employing the same HPLC method."}, "[6]": {"test_system": "786-O xenograft (renal cancer)", "assay": "In vivo xenotransplantation study, 786-O", "design": "species or system mice", "conditions": "36 mg/kg i.v., 3 days on, 4 days off, 3 cycles, mean tumor area", "protocol": "as §2"}, "αvβ3 receptor": {"target": "T1, αvβ3 receptor (Homo sapiens, UniProt P05106+P06756)", "T1 construct": "αvβ3 from human A375 cells was purified analogously to a procedure described by Wong et al; endogenous in cells; host or cells: human A375 cells (receptor purified from the cells)", "T1 sequence (P06756 31-889 limits assumed)": "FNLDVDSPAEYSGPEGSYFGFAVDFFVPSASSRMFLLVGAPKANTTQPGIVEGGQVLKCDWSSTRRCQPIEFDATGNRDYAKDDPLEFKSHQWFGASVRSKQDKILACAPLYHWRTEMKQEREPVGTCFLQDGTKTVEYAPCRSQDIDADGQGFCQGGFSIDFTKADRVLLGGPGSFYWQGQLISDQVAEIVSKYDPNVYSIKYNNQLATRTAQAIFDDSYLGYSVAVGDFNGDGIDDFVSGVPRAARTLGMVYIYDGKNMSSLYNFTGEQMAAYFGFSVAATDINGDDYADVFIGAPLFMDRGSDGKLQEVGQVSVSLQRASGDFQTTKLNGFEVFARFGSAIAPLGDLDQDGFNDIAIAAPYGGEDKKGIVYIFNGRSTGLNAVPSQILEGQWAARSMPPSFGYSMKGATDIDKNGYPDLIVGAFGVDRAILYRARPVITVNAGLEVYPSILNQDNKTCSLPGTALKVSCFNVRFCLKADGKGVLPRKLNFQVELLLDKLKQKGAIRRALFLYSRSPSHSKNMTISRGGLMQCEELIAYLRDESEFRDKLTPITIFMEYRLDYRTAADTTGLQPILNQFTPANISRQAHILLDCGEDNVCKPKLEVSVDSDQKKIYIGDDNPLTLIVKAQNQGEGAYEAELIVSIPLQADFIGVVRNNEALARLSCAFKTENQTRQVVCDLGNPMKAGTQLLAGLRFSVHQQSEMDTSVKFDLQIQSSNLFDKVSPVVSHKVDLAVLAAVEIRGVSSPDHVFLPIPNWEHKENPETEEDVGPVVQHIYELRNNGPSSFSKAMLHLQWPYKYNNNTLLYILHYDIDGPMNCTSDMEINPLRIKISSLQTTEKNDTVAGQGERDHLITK", "T1 sequence (P06756 891-1048 partner limits assumed)": "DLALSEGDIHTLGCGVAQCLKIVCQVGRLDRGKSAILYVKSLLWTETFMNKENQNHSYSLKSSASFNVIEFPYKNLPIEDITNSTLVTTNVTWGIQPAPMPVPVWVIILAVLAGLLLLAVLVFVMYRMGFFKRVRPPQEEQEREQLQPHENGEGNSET", "T1 sequence (P05106 27-788)": "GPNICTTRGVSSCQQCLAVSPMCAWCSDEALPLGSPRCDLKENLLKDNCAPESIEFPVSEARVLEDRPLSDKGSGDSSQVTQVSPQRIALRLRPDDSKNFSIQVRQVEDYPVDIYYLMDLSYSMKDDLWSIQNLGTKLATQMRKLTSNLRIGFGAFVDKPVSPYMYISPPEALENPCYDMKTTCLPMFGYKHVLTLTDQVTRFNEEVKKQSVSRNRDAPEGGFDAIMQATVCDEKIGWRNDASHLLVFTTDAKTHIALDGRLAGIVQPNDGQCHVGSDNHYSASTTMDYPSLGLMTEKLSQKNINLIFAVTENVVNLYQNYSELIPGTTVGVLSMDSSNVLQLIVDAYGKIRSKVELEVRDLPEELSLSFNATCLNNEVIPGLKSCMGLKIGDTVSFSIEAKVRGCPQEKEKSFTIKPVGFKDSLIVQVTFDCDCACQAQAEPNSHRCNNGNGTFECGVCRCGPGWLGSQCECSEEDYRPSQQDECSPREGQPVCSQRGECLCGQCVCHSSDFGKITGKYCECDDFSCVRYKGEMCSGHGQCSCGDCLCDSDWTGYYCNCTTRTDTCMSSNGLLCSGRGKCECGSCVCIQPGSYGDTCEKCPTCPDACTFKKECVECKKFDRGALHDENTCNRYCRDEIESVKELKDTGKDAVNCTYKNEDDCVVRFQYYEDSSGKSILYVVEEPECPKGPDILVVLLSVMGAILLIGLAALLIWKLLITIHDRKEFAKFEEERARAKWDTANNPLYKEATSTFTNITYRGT", "assay": "αvβ3 binding test (echistatin SPA)", "protocol": "αvβ3 from human A375 cells was purified analogously to a procedure described by Wong et al. in Molecular Pharmacology 50, 529-537 (1996). In each case, 10 μL of αvβ3 (5 ng) in TBS PH 7.6, 2 mM CaCl2. 1 mM MgCl2. 1% n-octylglucopyranoside (Sigma): 10 μL of test substance in TBS pH 7.6. 0.1% DMSO and 45 μL of TBS pH 7.6. 2 mM CaCl2, 1 mM MgCl2, 1 mM MnCl2 were incubated at room temperature for 1 h. In each case, 25 μL of WGA SPA beads (Amersham, 4 mg/ml) and 10 μL of echistatin (0.1 μCi, Amersham, chloramine-T labelled) were then added. After 16 h at room temperature, the samples were measured in a scintillation measuring apparatus (Wallac 1450)."}},
  "note": "Read-outs that look alike come from different tables or passages of the source. Marks after values point to notes of the source that are not given here.",
  "data": [
    {"smiles": "CCCNC(=O)Nc1cccc(S(=O)(=O)Nc2cccc([C@@H](CC(=O)[O-])NC(=O)Nc3ccc(NC(=O)NCCOCCOCCOCCC(=O)N[C@@H](CC(=O)[O-])C(=O)N4CCC[C@H]4C(=O)N[C@H](C(=O)O[C@]4(CC)C(=O)OCc5c4cc4n(c5=O)Cc5c-4nc4ccccc4c5CC)C(C)C)cc3)c2)c1.[Na+].[Na+]", "note": "[Example 1, disodium (4S)-4,11-diethyl-3,14-dioxo-3,4,12,14-tetrahydro-1H-pyrano[3′,4′: 6,7]indolizino [1,2-b]quinolin-4-yl 1-{(2S)-2-(carboxylatomethyl)-17-[4-({[(1R)-2-carboxylato-1-{3-[({3-[(propyl-carbamoyl)amino]phenyl}sulfonyl)amino]phenyl}ethyl]carbamoyl}amino)anilino]-4,17-dioxo-7,10,13-trioxa-3,16-diazaheptadecan-1-oyl}-L-prolyl-L-valinate]", "values": [
      {"measurement": "Stability in citric acid buffer at pH 4, 4h", "setting": "[1]; 4 h", "result": 100, "unit": "%"},
      {"measurement": "Stability in citric acid buffer at pH 4, 24h", "setting": "[1]; 24 h", "result": 95, "unit": "%"},
      {"measurement": "Specificity factor", "setting": "786-O cell line; 786-O, IC50 w/o elastase versus w elastase", "result": 165},
      {"measurement": "IC50", "setting": "786-O cell line; 72 h, MTT, 10 nM elastase, read-out: 786-O cell line IC50 w elastase", "result": 1.1, "unit": "nM"},
      {"measurement": "IC50", "setting": "786-O cell line; 72 h, MTT, without elastase, read-out: 786-O cell line IC50 w/o elastase", "result": 188, "unit": "nM"},
      {"measurement": "IC50", "setting": "786-O cell line; side by side comparison, elastase with higher enzymatic activity used, read-out: 786-O cell line IC50 w elastase", "result": 0.17, "unit": "nM"},
      {"measurement": "IC50", "setting": "786-O cell line; side by side comparison, without elastase, read-out: 786-O cell line IC50 w/o elastase", "result": 28, "unit": "nM"},
      {"measurement": "T/C", "setting": "[2]", "result": "0.1*"},
      {"measurement": "stable in rat plasma for", "setting": "[3]", "result": "> 24", "unit": "h"},
      {"measurement": "T/C", "setting": "[4]", "result": "0.03*"},
      {"measurement": "IC50", "setting": "HT29 cell line; 10 nM elastase, read-out: HT29 cell line IC50 w elastase", "result": 8.7, "unit": "nM"},
      {"measurement": "IC50", "setting": "HT29 cell line; without elastase, read-out: HT29 cell line IC50 w/o elastase", "result": 245, "unit": "nM"},
      {"measurement": "T/C", "setting": "[5]", "result": "0.06*"},
      {"measurement": "solubility at 24 h", "setting": "Solubility in vehicles; read-out: Solubility in 0.9% NaCl in H2O", "result": 465, "unit": "µg/mL"},
      {"measurement": "solubility at 24 h", "setting": "Solubility in vehicles; read-out: Solubility in 5% D-Mannitol", "result": "> 500", "unit": "µg/mL"},
      {"measurement": "T/C", "setting": "[6]", "result": "0.19*"},
      {"measurement": "IC50", "setting": "αvβ3 receptor", "result": 29, "unit": "nM"}
    ]}
  ]
}
